From US20210290553A1, “HC-1119 FORMULATION, PREPARATION METHOD AND USE THEREOF” (HINOVA PHARMACEUTICALS INC., priority 2018, published 2021)
Read-outs that look alike come from different tables or passages of the source.

Experiments:
[1] = 160 mg QD 49 days, cited from earlier work
[2] = Clinical pharmacokinetic test of HC-1119 soft capsule; assay type: in vivo; details: human, plasma, oral, HC-1119 80 mg, day 84
Experimental: (1) Dosage: 80 mg/day (2 soft capsules of 40 mg)
(2) Administration way: continuous administration, once a day, the first administration being orally taken with empty stomach, thereafter no restriction on diet.
In the pharmacokinetic study, 9 subjects participated in this study.
The drug was taken by the subjects with empty stomach on the first day of the test, and 0˜0.5 h before taking the drug as well as 0.5 h, 0.75 h, 1 h, 2 h (±5 min), 4 h, 8 h, 12 h (±15 min), 24 h (±30 min) before administration on the second day), blood samples were collected, and 3 mL venous blood was drawn at each time point, then placed in an anticoagulant tube (the type of anticoagulant was determined according to the established analytical method).
0˜0.5 h before administration on day 7, 21, 35, 42, 56, 70, and 84 of continuous dosing, as well as 0.5 h, 0.75 h, 1 h, 2 h (±5 min), 4 h, 8 h, 12 h (±15 min), 24 h (±30 min, before administration on day 85) after administration on day 84, 3 mL venous blood was collected at each time point and placed in an anticoagulant tube (the type of anticoagulant was determined according to the established analytical method).
The sample should be centrifuged as soon as possible (about 3000 rpm, 10 min) to separate the plasma. The separated plasma samples need to be stored in two parts in a plasma cryotube. […]

[3] = Physical and chemical properties: solubility in water; assay type: physicochemical
From the text: (§1) Therefore, HC-1119 is an insoluble drug with high permeability, and belongs to the second category of BSC classification, and thus it is extremely important to improve the bioavailability thereof.

[4] = Permeability evaluated by Caco-2 cell model; assay type: in vitro ADME; details: human; 10 μM HC-1119, Caco-2 cell model; read-out: apparent permeability coefficient
From the text: as §1

AUC at 84 day ([2]; read-out: steady-state AUC on day 84) [µg·h/mL]	concentration at 84 day ([2]; read-out: steady-state Ctrough on day 84) [ng/mL]	solubility in water [3]	Papp at 10 μM [4] [×10⁻⁶ cm/s]	SMILES	AUCtau ([1]; Median) [µg·h/mL]	CL/F ([1]; Median) [L/h]	Cmax ([1]; Median) [ng/mL]	Cmin ([1]; Median) [ng/mL]	tmax ([1]; Median) [min]	AUCtau ([1]; Min-Max) [µg·h/mL]	Cmax ([1]; Min-Max) [ng/mL]	Cmin ([1]; Min-Max) [ng/mL]	tmax ([1]; Min-Max) [min]	AUCtau ([1]; mean values) [µg·h/mL]	CL/F ([1]; mean values) [L/h]	Cmax ([1]; mean values) [ng/mL]	Cmin ([1]; mean values) [ng/mL]	Cmin ([1]; mean values, listed as enzalutamide) [ng/mL]
				CNC(=O)c1ccc(N2C(=S)N(c3ccc(C#N)c(C(F)(F)F)c3)C(=O)C2(C)C)cc1F [Enzalutamide, enzalutamide]	295.6	0.541	15550	11450	61.2	240 to 593	11800 to 28000	6920 to 22400	31.2 to 181	321.5	0.520	16590	12000	12000
480	18900	difficult to dissolve in water	11.4 to 13.6	[2H]C([2H])([2H])NC(=O)c1ccc(N2C(=S)N(c3ccc(C#N)c(C(F)(F)F)c3)C(=O)C2(C)C)cc1F [HC-1119, 4-{3-[4-cyano-3-(trifluoromethyl)phenyl]-5,5-dimethyl-4-oxo-2-thio-1-imidazolidinyl}-2-fluoro-N-trideuteromethylbenzamide]														
